Source: patent US8188078B2 (Sanofi-Aventis, priority 2007, dated 2012)

Legend:
c-MET = target: T1, c-MET (Homo sapiens, UniProt P08581); assay: Test A: HTRF Met test in 96-well format; format: biochemical
T1 construct: The recombinant DNA His-Tev-MET (956-1390) in pFastBac(Invitrogen); His (N, cleaved yes); Tev (TEV protease site) (N, cleaved yes); made in house; host or cells: SF21 insect cells (baculovirus, pFastBac)
Outline: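 Percent inhibition was calculated from the HTRF 665/620 ratio, using Eu-cryptate anti-phosphotyrosine PT66 plus streptavidin-XL added with EDTA and read after 2 h. The reaction ran 10 min at room temperature: 5 nM tag-cleaved MET (956–1390), 10 µM ATP, 1 µg/ml poly-GAT, and compound from 0.17 nM to 10 µM in 3% DMSO.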

RON = RON (Homo sapiens, UniProt Q04912); assay: Test B: HTRF RON test in 96-well format; format: biochemical
Sequence of RON (Q04912 25-1400): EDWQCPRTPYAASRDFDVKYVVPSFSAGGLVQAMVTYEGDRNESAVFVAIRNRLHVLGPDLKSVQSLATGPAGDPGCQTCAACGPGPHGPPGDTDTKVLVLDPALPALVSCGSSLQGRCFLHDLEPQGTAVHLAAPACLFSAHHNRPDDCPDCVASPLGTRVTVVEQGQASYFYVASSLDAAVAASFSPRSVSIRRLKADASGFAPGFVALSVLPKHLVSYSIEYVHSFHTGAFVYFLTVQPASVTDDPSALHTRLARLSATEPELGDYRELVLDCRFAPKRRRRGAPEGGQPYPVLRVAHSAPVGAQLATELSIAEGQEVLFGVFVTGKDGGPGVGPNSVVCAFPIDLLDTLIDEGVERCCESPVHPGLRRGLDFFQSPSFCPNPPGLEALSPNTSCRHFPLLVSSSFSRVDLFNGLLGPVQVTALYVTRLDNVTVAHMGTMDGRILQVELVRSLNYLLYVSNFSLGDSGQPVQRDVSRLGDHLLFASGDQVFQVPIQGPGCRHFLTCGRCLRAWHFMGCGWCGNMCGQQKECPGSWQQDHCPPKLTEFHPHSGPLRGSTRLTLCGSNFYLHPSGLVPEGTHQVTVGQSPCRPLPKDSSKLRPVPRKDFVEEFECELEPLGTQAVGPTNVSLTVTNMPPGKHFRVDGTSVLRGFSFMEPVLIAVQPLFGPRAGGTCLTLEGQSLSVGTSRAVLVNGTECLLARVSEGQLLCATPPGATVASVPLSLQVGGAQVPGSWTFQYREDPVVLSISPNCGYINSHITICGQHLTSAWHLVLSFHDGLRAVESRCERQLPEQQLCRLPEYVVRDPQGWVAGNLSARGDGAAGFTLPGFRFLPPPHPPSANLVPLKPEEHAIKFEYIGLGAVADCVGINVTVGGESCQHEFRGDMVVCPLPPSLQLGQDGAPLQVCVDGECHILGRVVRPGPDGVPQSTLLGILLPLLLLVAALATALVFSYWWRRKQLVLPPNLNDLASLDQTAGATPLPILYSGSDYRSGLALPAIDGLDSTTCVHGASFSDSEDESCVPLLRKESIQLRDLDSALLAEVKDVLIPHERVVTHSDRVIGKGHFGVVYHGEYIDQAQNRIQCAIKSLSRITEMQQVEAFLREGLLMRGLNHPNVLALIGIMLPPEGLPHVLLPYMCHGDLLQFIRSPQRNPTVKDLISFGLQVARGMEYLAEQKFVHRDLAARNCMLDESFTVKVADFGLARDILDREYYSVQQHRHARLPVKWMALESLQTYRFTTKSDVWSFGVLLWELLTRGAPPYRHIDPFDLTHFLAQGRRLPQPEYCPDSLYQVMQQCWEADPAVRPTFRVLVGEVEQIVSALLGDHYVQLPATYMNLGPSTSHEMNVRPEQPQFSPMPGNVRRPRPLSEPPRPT
Outline: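 RON 5 nM pre-incubated 30 min at RT with compound (0.17 nM–10 μM final, 3% DMSO) in MOPS 10 mM pH 7, DTT, Tween 20. Reaction with biotinylated poly-(GAT) 1 μg/ml, ATP 10 μM, MgCl2 5 mM, 30 min RT. Eu-anti-pTyr/streptavidin-XL665 HTRF, 665/620 ratio gives % inhibition, IC50.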

MKN45 cells = assay: Test D: cellular proliferation by 14C-thymidine pulse, MKN45 cells; format: cell-based; conditions: Homo sapiens, MKN-45, cellular proliferation by 14C-thymidine pulse; cell line not stated (HCT116 or MKN45)
Outline: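 MKN45 cells (7500/well, RPMI + 10% foetal calf serum) treated with 10 concentrations, 10000 to 0.3 nM in 3-fold steps, duplicate. 14C-thymidine (0.1 μCi/well) added at 72 h; incorporation counted after 24 h pulse, 96 h total treatment.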

T1 sequence (P08581 956-1390): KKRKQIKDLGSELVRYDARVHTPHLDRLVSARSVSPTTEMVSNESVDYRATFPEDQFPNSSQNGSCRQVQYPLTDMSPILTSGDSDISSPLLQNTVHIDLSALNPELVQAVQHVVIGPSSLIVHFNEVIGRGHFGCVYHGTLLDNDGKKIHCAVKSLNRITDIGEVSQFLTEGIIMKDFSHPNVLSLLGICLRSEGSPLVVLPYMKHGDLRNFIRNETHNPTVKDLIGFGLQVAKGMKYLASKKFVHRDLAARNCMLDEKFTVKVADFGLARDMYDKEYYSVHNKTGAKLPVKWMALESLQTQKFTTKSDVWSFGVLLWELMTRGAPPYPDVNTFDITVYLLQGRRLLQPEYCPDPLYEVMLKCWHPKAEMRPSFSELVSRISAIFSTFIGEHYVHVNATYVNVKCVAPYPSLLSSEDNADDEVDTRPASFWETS

IC50 (c-MET) | IC50 (RON) | IC50 (MKN45 cells) | SMILES
< 100 nM | 500 to 10000 nM | > 10000 nM | CC(Oc1ccc2nc(NC(=O)NCCCn3cccc3)sc2c1)c1c(Cl)ccc(F)c1Cl (stereo not drawn) [Example 40, 1-{6-[1-(2,6-dichloro-3-fluorophenyl)ethoxy]-1,3-benzothiazol-2-yl}-3-[3-(1H-pyrrol-1-yl)propyl]urea]
< 100 nM | < 500 nM | < 500 nM | CC(Oc1ccc2nc(NC(=O)NCCN3CCN(C)CC3)sc2c1)c1c(F)ccc(Cl)c1Cl (single isomer, unassigned) [Example 109, 1-{6-[(1R*)-1-(2,3-dichloro-6-fluorophenyl)ethoxy]-1,3-benzothiazol-2-yl}-3-[2-(4-methylpiperazin-1-yl)ethyl]urea]
< 100 nM | < 500 nM | 500 to 10000 nM | CC(Oc1cc2sc(NC(=O)NCCCO)nc2cc1F)c1c(Cl)ccc(F)c1Cl (stereo not drawn) [Example 105, 1-{6-[1-(2,6-dichloro-3-fluorophenyl)ethoxy]-5-fluoro-1,3-benzothiazol-2-yl}-3-(3-hydroxypropyl)urea]
< 100 nM | 500 to 10000 nM | 500 to 10000 nM | CC(Oc1ccc2nc(NC(=O)NCCCN3CCCC3=O)sc2c1)c1c(Cl)ccc(F)c1Cl (stereo not drawn) [Example 45, 1-{6-[1-(2,6-dichloro-3-fluorophenyl)ethoxy]-1,3-benzothiazol-2-yl}-3-[3-(2-oxopyrrolidin-1-yl)propyl]urea]
< 100 nM | < 500 nM | 500 to 10000 nM | CC(Oc1ccc2nc(NC(=O)NCCN3CCOCC3)sc2c1)c1c(Cl)cccc1Cl (stereo not drawn) [Example 17, 1-{6-[1-(2,6-dichlorophenyl)ethoxy]-1,3-benzothiazol-2-yl}-3-(2-morpholin-4-ylethyl)urea]
< 100 nM | < 500 nM | 500 to 10000 nM | CC(Oc1cc2sc(NC(=O)NCCN3CCCC3)nc2cc1F)c1c(F)ccc(Cl)c1Cl (stereo not drawn) [Example 118, 1-{6-[1-(2,3-dichloro-6-fluorophenyl)ethoxy]-5-fluoro-1,3-benzothiazol-2-yl}-3-[2-(pyrrolidin-1-yl)ethyl]urea]
< 100 nM | < 500 nM | < 500 nM | CC(Oc1ccc2nc(NC(=O)NCCN3CCCC3)sc2c1)c1c(F)ccc(Cl)c1Cl (stereo not drawn) [Example 120, 1-{6-[1-(2,3-dichloro-6-fluorophenyl)ethoxy]-1,3-benzothiazol-2-yl}-3-[2-(pyrrolidin-1-yl)ethyl]urea]

SMILES | IC50 (c-MET) | IC50 (RON) | IC50 (MKN45 cells)
CCN(CC)CCCOC(=O)Nc1nc2cc(F)c(OC(C)c3c(Cl)ccc(F)c3Cl)cc2s1 (stereo not drawn) [Example 70] | < 100 nM | 500 to 10000 nM | 500 to 10000 nM
